We go through one compound from patent US6696407B1, “Huntington's disease treatment comprising administering aldose reductase inhibitors to increase striatal CNTF” (The Regents of the University of California, priority 1997, dated 2004).

Marks after values point to notes of the source that are not given here.

The nature of the assay: Motor nerve conduction velocity (MNCV). The format is in vivo, rat. The settings on record: Ponalrestat 50 mg/kg daily oral, two months. The protocol:
These studies were conducted with the approval of the San Diego Veterans Administration Animal Studies Subcommittee. Female Sprague-Dawley rats (240-300 g; Charles River, San Diego, Calif.) were housed in cages with wire bottoms to reduce contact with urine and feces. Groups were established and fed either a 40% D-galactose diet or a control diet specially formulated by Purina that contained 40% solka floc, a nonnutritive fiber, to balance nutritional intake. All diets contained 100% of the micronutrients required by rats and, with water, were available ad libitum. Each of these diet groups contained animals that were treated with the ARI, Ponalrestat (50 mg/kg), daily by oral gavage. […] Under deep anesthesia, motor nerve conduction velocity (MNCV) was measured in the left hindlimb prior to removal of the sciatic nerve. […] Evoked responses were recorded with needle electrodes placed in the interosseous muscles of the ipsilateral foot, amplified (×100) with a P15 AC Amplifier (Grass Instruments Co, Quincy, Mass.) and recorded on a 5110 Storage Oscilloscope and 5D10 Waveform Digitizer (Tektronix, Inc., Beaverton, Oreg.). […] Data are presented as mean ±SD (N=8 to 10) and were analyzed with a one way ANOVA after which multiple comparisons were made with the Student-Newman-Keuls test. […] ARI-treated animals received a daily oral gavage (50 mg/kg) of Ponalrestat (ND-Not detected).

As for `O=C(O)Cc1nn(Cc2ccc(Br)cc2F)c(=O)c2ccccc12` [Ponalrestat, 3-(4-bromo-2-fluorobenzyl)-4-oxo-3H-phthalazin-1-ylacetic acid], the MNCV (40% D-galactose diet rats) is listed as 64.8 ± 5.1^a m/s and the MNCV (control diet rats) is given as 63.9 ± 4.0^a m/s.
